Laboratory results: publication PMC10574094, “Discovery of a SHP2 Degrader with In Vivo Anti-Tumor Activity” (Molecules, 2023)

What was measured:
PTP1B and SHP1 = assay: Western blot of PTP1B and SHP1 in KYSE-520 cells; assay type: cell-based; details: 16 h
Experimental: (§1) HEK293, SKBR3, U2OS, MCF7 and A549 cells were grown in DMEM supplemented with 10% FBS, penicillin (50 units/mL), and streptomycin (50 μg/mL) in a 37 °C incubator containing 5% CO2. KYSE-520 and H358 cells were grown in RPMI-1640 supplemented with 10% FBS, penicillin (50 units/mL), and streptomycin (50 μg/mL) in a 37 °C incubator containing 5% CO2. For western-blot analysis, protein samples were separated by SDS-PAGE, transferred to nitrocellulose membranes, and incubated overnight at 4 °C with corresponding primary antibodies diluted in 5% BSA in phosphate-buffered saline Tween (PBST). SuperSignal™ West Pico PLUS (PI34580; Thermo Scientific) was used to visualize the antibodies in the bioanalytical imaging system (Azure Biosystems c500). Anti-p-ERK1/2 (T202/Y204) (4370), and anti-ERK1/2 (4696) were purchased from Cell Signaling Technology. Anti-GAPDH (sc-365062), anti-SHP2 (sc-7384), anti-SHP1 (sc-7289), and anti-Actin (sc-8432) antibodies were purchased from Santa Cruz. Anti-PTP1B (ab244207) antibody was purchased from Abcam. For colony formation assay, a total of approximately 200–500 cells were seeded to each well in a 12-well plate. The wells were then treated with DMSO, compound P9 and 3 at 37 °C for 3 weeks, gently washed, and stained with crystal violet.

other PTPs = assay: PTP inhibition assay, panel of representative PTP family members; assay type: biochemical; details: up to 10 µM P9 concentration
Experimental: PTP activity was assayed using p-nitrophenyl phosphate (pNPP) as a substrate in DMG buffer (50 mM DMG, pH 7.0, 1 mM EDTA, 150 mM NaCl, 2 mM DTT, 0.1 mg/mL BSA) at 25 °C. The assays were performed in 96-well plates. To determine the IC50 values, the reaction was initiated by the addition of enzyme (final concentration = 10 nM) to a reaction mixture (0.2 mL) containing pNPP (at a final concentration close to the Kms of tested enzymes, in specific: 0.05 mM for CDC-14A; 0.5 mM for FAP-1; 2 mM for TC-PTP, PTP1B, STEP, LWM-PTP, and PTPα; 3 mM for SHP1; 4 mM for Laforin; 5 mM for LYP, CD45, and VHR; 6 mM for PTP-MEG2 and HePTP) with various concentrations of inhibitors. The reaction rate was measured using a SpectraMax Plus 384 Microplate Spectrophotometer (Molecular Devices, San Jose, CA, USA). Data were fitted using the SigmaPlot Enzyme Kinetics Module (Systat Software, Inc., San Jose, CA, USA).

SHP2 [1] = target: T1, SHP2 (Homo sapiens, UniProt Q06124); assay: SHP2 degradation by Western blotting in HEK293 cells; assay type: cell-based; design: endogenous in cells; host or cells: HEK293; details: HEK293 cells
T1 sequence (Q06124 1-593): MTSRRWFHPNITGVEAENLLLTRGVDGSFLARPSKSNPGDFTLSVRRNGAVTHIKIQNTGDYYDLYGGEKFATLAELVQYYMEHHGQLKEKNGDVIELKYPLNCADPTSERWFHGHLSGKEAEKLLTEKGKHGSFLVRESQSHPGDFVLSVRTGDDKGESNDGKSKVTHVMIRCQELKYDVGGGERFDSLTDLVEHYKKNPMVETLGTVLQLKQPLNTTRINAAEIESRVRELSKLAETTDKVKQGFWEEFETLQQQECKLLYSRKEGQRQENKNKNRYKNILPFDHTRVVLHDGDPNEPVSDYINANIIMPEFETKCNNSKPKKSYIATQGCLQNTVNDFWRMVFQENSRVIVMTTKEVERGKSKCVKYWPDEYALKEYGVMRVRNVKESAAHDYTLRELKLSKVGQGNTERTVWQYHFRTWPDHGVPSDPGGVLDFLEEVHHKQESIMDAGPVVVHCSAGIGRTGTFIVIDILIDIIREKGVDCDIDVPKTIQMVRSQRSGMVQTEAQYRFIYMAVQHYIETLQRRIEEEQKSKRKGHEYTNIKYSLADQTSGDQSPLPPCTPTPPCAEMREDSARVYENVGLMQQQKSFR

[2] = tested on: SHP1, PTP1B, TC-PTP, LYP, PRL1, PRL2; assay: Western blot of other PTPs in HEK293 cells (degrader selectivity); assay type: cell-based, human; details: 1 μM P9, 16 h
Experimental: as §1

SHP2 [3] = target: T1, SHP2; assay: SHP2 level in KYSE-520 tumor homogenates (Western blot); assay type: in vivo, mice; design: from tissue; host or cells: KYSE-520 xenograft tumour from nude mice, whole tumour homogenate; details: whole tumor homogenates, 50 mg/kg P9 IP
Experimental: as §1, with “For colony formation assay, a total of approximately 200–500 cells were seeded to each well in a 12-well plate. The wells were then treated with DMSO, compound P9 and 3 at 37 °C for 3 weeks, gently washed, and stained with crystal violet.” left out
(§2) For the xenograft tumor study, KYSE-520 cells were suspended in PBS and a total of 3 × 10^6 cells (100 μL) were subcutaneously implanted into both the left and right flank using a 27-gauge needle. Tumor volume was calculated using the formula V = (W^2 × L)/2 for caliper measurements. […]

pERK1/2 [4] = assay: pERK1/2 level in KYSE-520 tumor homogenates (Western blot); assay type: in vivo, mice; details: whole tumor homogenates, 50 mg/kg P9 IP
Experimental: as §1, with “For colony formation assay, a total of approximately 200–500 cells were seeded to each well in a 12-well plate. The wells were then treated with DMSO, compound P9 and 3 at 37 °C for 3 weeks, gently washed, and stained with crystal violet.” left out
as §2

ERK1/2, AKT, β-Actin = assay: Western blot of other signaling proteins in HEK293 cells; assay type: cell-based, human; details: 1 μM P9, 16 h
Experimental: as §1

pERK1/2 [5] = assay: pERK1/2 inhibition by Western blotting in KYSE-520 cells; assay type: cell-based; details: Homo sapiens, 16 h
Experimental: as §1

Question: With `Cc1ncsc1-c1ccc([C@H](C)NC(=O)[C@@H]2C[C@@H](O)CN2C(=O)[C@@H](NC(=O)CCCCCCCCCN2CCN(C(=O)CCCCCC3(CN)CCN(c4cnc(Sc5cccc(Cl)c5Cl)c(N)n4)CC3)CC2)C(C)(C)C)cc1` [P9, (2S,4R)-1-((S)-2-(10-(4-(6-(1-(6-amino-5-((2,3-dichlorophenyl)thio)pyrazin-2-yl)-4-(aminomethyl)piperidin-4-yl)hexanoyl)piperazin-1-yl)decanamido)-3,3-dimethylbutanoyl)-4-hydroxy-N-((S)-1-(4-(4-methylthiazol-5-yl)phenyl)ethyl)pyrrolidine-2-carboxamide] as the compound, how does the “protein levels of PTP1B and SHP1” value (PTP1B and SHP1) read?
Answer: not affected

Question: And the “inhibition towards other PTPs” value (other PTPs)?
Answer: no significant inhibition

Question: And the “time at which maximal SHP2 depletion was achieved” value (SHP2 [1])?
Answer: 16 h

Question: What about the DC50 (SHP2 [1]; 16 h of treatment, read-out: DC50 (concentration required for 50% degradation of protein)) of the same compound?
Answer: 35.2 ± 1.5 nM

Question: What about the hook effect (SHP2 [1]; tested concentration range) of the same compound?
Answer: no significant hook effect

Question: And the SHP2 protein degraded (SHP2 [1]; within 6 h of P9 treatment)?
Answer: Over 90%

Question: What about the “protein level of other PTPs” value [2] of the same compound?
Answer: none of the other PTPs including SHP1, PTP1B, TC-PTP, LYP, PRL1, and PRL2, were affected

Question: What about the “SHP2 level, % of the control group” value (SHP2 [3]) of the same compound?
Answer: 34 ± 18%

Question: What about the “pERK1/2 level, % of the control group” value (pERK1/2 [4]) of the same compound?
Answer: 24 ± 12%

Question: And the “degradation of other signaling proteins” value (ERK1/2, AKT, β-Actin)?
Answer: did not induce any appreciable degradation

Question: And the EC50 (pERK1/2 [5])?
Answer: ~240 nM
